Experimental data taken from patent publication US20100240642A1, “1H-Indole-2-Carboxylic Acid Derivatives Useful As PPAR Modulators” (SMITHKLINE BEECHAM CORPORATION, priority 2006, published 2010).
Like-named read-outs stand apart in the source and are kept apart here.

Molecular target: T1, hPPARγ receptor (Homo sapiens, UniProt P37231)
T1 construct: expressed in transfected cells; host or cells: CV-1 (African Green Monkey kidney, ATCC CCL-70)
T1 sequence (P37231 172-475 isoform P37231-2): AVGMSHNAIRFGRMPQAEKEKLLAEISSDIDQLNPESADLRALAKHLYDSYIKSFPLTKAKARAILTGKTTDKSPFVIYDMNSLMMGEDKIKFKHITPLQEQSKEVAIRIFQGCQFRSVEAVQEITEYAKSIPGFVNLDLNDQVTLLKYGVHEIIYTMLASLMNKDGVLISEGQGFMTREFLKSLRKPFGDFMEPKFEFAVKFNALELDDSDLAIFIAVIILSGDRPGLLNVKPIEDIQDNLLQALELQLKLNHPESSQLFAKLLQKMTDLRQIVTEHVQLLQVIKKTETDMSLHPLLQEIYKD
Assay: PPARγ Cell-based luciferase assay
Description: Plasmids—PCR primers containing Kpnl and BamHI restriction sites were used to amplify PPARγ ligand binding domain (LBD) fragment (172-475) from a full-length human clone. The LBD fragment was ligated into the multiple cloning site of pFA-CMV (Stratagene). The resulting construct (pFA-CMV-GAL4-hPPARγLBD carried a fusion of the LBD with the yeast-derived GAL4 DNA-binding domain under the control of the CMV immediate early promoter. Reporter construct UAStkLuc carries a single 17 bp (CGGAGTACTGTCCTCCG) upstream activating sequence (UAS), the tk minimal promoter, and the firefly luciferase gene. The integrity of each construct was confirmed by diagnostic restriction digestion and by sequencing. Plasmid DNA was prepared using Qiagen Maxi-Prep kits.
PPARγ Cell-based luciferase assay—African Green Monkey kidney cell line CV-1 (ATCC CCL-70) was maintained in Dulbecco's Modified Eagle's Medium (D-MEM) containing 10% fetal bovine serum, 2 mM glutamine, and 1% penicillin/streptomycin (pen/strep). In preparation for luciferase assays, CV-1 cells were grown in charcoal-stripped cell medium containing D-MEM/F-12 medium supplemented with 5% or 3% dextran-treated/charcoal-stripped (CS) fetal bovine serum, 2 mM glutamine, with or without 1% pen/strep, as described below. CS fetal bovine serum was purchased from Hyclone; all other cell culture reagents were from Gibco.
The luciferase protocol is a multi-day procedure. On day 1, confluent cells in maintenance medium were subcultured 1:10 into T-175 cm^2 flasks containing 50 mL of 3% CS medium with pen/strep. These flasks were allowed to incubate at 5% CO2 and 37° C. for 72 hours.
Cells were harvested by trypsinization and then transfected using FuGENE (Roche) according to the manufacturer's specifications. Briefly, each transfection contained 0.55 μg pFA_CMV_GAL4_hPPARγ_LBD plasmid, 10.9 μg UAStkLUC, and 24 μg pBluescript (carrier DNA). Plasmid DNA was mixed with FuGENE in OptiMEM-1 medium and incubated for 30 min at room temperature. During this incubation, cells were harvested into 3% CS medium without pen-strep and dispensed at 14 million cells per T-175 cm^2 flask. Transfection mixes were added to the flasks and incubated overnight at 5% CO2 and 37° C.
Transfected cells were added to 384-well plates containing pharmacological agents. Rosiglitazone standard was reconstituted in DMSO at 1 mM. For 11-point dose-response experiments, the compounds were 3-fold serially diluted in DMSO and then stamped to 384-well assay plates (NUNC, catalog #164564) at 0.5 μL/well using a Beckman FX. DMSO and agonist control compound Rosiglitazone (1 mM) were each stamped at 0.5 μL/well to columns 23 and 24, respectively, of the 384-well plates. Transfected cells were harvested in 5% CS medium with pen/strep and dispensed at 10,000 cells/well (50 μL) onto the prepared 384-well compound plates using a Titertek Multidrop. Following overnight incubation at 5% CO2 and 37° C., Steady-Glo reagent (Promega) was added to the assay plates using a Multidrop. Plates were incubated for 10 min to ensure complete cell lysis and read in a ViewLux (PerkinElmer). […] Partial agonism is defined here as 20-80% activation (relative to full agonist rosiglitazone) at concentrations of 10^−6 M or less.

[1] = CV-1 cells transfected with GAL4-hPPARγ LBD and UAStkLuc, at concentrations of 10^−6 M or less, read-out: agonism of the hPPARγ receptor (activation relative to full agonist rosiglitazone)
[2] = CV-1, read-out: agonism of the hPPARγ receptor (activation relative to full agonist rosiglitazone)

Compound | Emax [1] | Emax [2]
CNC(=O)c1cccc(-c2ccc(C)c(Cn3c(C(=O)O)c(-c4ccc(C(C)(C)C)cc4)c4ccccc43)c2)c1 [Example 29, 3-[4-(1,1-dimethylethyl)phenyl]-1-({4-methyl-3′-[(methylamino)carbonyl]-3-biphenylyl}methyl)-1H-indole-2-carboxylic acid] | 20 to 80% | –
Cc1ccc(-c2cccc(C(=O)NCc3cccs3)c2)cc1Cn1c(C(=O)O)c(-c2ccc(C(C)(C)C)cc2)c2ccccc21 [Example 30, 3-[4-(1,1-dimethylethyl)phenyl]-1-[(4-methyl-3′-{[(2-thienylmethyl)amino]carbonyl}-3-biphenylyl)methyl]-1H-indole-2-carboxylic acid] | 20 to 80% | –
Cc1ccc(-c2cccc(C(=O)NCCc3cccs3)c2)cc1Cn1c(C(=O)O)c(-c2ccc(C(C)(C)C)cc2)c2ccccc21 [Example 31] | 20 to 80% | –
Cc1ccc(-c2ccc(C(=O)NCc3cccs3)cc2)cc1Cn1c(C(=O)O)c(-c2ccc(C(C)(C)C)cc2)c2ccccc21 [Example 32, 3-[4-(1,1-dimethylethyl)phenyl]-1-[(4-methyl-4′-{[(2-thienylmethyl)amino]carbonyl}-3-biphenylyl)methyl]-1H-indole-2-carboxylic acid] | 20 to 80% | –
Cc1ccc(-c2ccc(C(=O)NCCc3cccs3)cc2)cc1Cn1c(C(=O)O)c(-c2ccc(C(C)(C)C)cc2)c2ccccc21 [Example 33, 3-[4-(1,1-dimethylethyl)phenyl]-1-{[4-methyl-4′-({[2-(2-thienyl)ethyl]amino}carbonyl)-3-biphenylyl]methyl}-1H-indole-2-carboxylic acid] | 20 to 80% | –
CC(C)(C)OC(=O)NS(=O)(=O)N1CCN(c2cccc(Cn3c(C(=O)O)c(-c4ccc(C(C)(C)C)cc4)c4ccccc43)c2)CC1 [Example 38, 1-[(3-{4-[({[(1,1-dimethylethyl)oxy]carbonyl}amino)sulfonyl]-1-piperazinyl}phenyl)methyl]-3-[4-(1,1-dimethylethyl)phenyl]-1H-indole-2-carboxylic acid] | 20 to 80% | –
CN(C)CCOc1cc(Cn2c(C(=O)O)c(-c3ccc(C(C)(C)C)cc3)c3ccccc32)cc(OCC2CC2)c1 [Example 40, 1-[(3-[(cyclopropylmethyl)oxy]-5-{[2-(dimethylamino)ethyl]oxy}phenyl)methyl]-3-[4-(1,1-dimethylethyl)phenyl]-1H-indole-2-carboxylic acid] | 20 to 80% | –
CC(C)(C)c1ccc(-c2c(C(=O)O)n(Cc3cc(OCCN4CCCC4)cc(OCC4CC4)c3)c3ccccc23)cc1 [Example 41, 1-[(3-[(cyclopropylmethyl)oxy]-5-{[2-(1-pyrrolidinyl)ethyl]oxy}phenyl)methyl]-3-[4-(1,1-dimethylethyl)phenyl]-1H-indole-2-carboxylic acid] | 20 to 80% | –
CN(C)CCCOc1cc(Cn2c(C(=O)O)c(-c3ccc(C(C)(C)C)cc3)c3ccccc32)cc(OCC2CC2)c1 [Example 43, 1-[(3-[(cyclopropylmethyl)oxy]-5-{[3-(dimethylamino)propyl]oxy}phenyl)methyl]-3-[4-(1,1-dimethylethyl)phenyl]-1H-indole-2-carboxylic acid] | 20 to 80% | –
COCCOc1cc(Cn2c(C(=O)O)c(-c3ccc(C(C)(C)C)cc3)c3ccccc32)cc(OC(=O)N(C)C)c1 [Example 49, 1-[(3-{[(dimethylamino)carbonyl]oxy}-5-{[2-(methyloxy)ethyl]oxy}phenyl)methyl]-3-[4-(1,1-dimethylethyl)phenyl]-1H-indole-2-carboxylic acid] | – | 20 to 80%
COCCOc1cc(Cn2c(C(=O)O)c(-c3ccc(C(C)(C)C)cc3)c3ccccc32)cc(OC(=O)N2CCN(C)CC2)c1 [Example 50, 3-[4-(1,1-dimethylethyl)phenyl]-1-[(3-{[2-(methyloxy)ethyl]oxy}-5-{[(4-methyl-1-piperazinyl)carbonyl]oxy}phenyl)methyl]-1H-indole-2-carboxylic acid] | – | 20 to 80%

Continued, in another order:

Emax [1] | Compound | Emax [2]
20 to 80% | CC(C)(C)c1ccc(-c2c(C(=O)O)n(Cc3cccc(N4CCN(S(C)(=O)=O)CC4)c3)c3ccccc23)cc1 [Example 34, 3-[4-(1,1-dimethylethyl)phenyl]-1-({3-[4-(methylsulfonyl)-1-piperazinyl]phenyl}methyl)-1H-indole-2-carboxylic acid] | –
20 to 80% | CC(=O)N1CCN(c2cccc(Cn3c(C(=O)O)c(-c4ccc(C(C)(C)C)cc4)c4ccccc43)c2)CC1 [Example 35, 1-{[3-(4-acetyl-1-piperazinyl)phenyl]methyl}-3-[4-(1,1-dimethylethyl)phenyl]-1H-indole-2-carboxylic acid] | –
20 to 80% | COC(=O)N1CCN(c2cccc(Cn3c(C(=O)O)c(-c4ccc(C(C)(C)C)cc4)c4ccccc43)c2)CC1 [Example 36, 3-[4-(1,1-dimethylethyl)phenyl]-1-[(3-{4-[(methyloxy)carbonyl]-1-piperazinyl}phenyl)methyl]-1H-indole-2-carboxylic acid] | –
20 to 80% | CC(C)(C)c1ccc(-c2c(C(=O)O)n(Cc3cccc(N4CCN(C(N)=O)CC4)c3)c3ccccc23)cc1 [Example 37, 1-({3-[4-(aminocarbonyl)-1-piperazinyl]phenyl}methyl)-3-[4-(1,1-dimethylethyl)phenyl]-1H-indole-2-carboxylic acid] | –
20 to 80% | CC(C)(C)c1ccc(-c2c(C(=O)O)n(Cc3cccc(N4CCN(S(N)(=O)=O)CC4)c3)c3ccccc23)cc1 [Example 39, 1-({3-[4-(aminosulfonyl)-1-piperazinyl]phenyl}methyl)-3-[4-(1,1-dimethylethyl)phenyl]-1H-indole-2-carboxylic acid] | –
20 to 80% | CC(C)(C)c1ccc(-c2c(C(=O)O)n(Cc3cccc(N4CCSCC4)c3)c3ccccc23)cc1 [Example 44, 3-[4-(1,1-dimethylethyl)phenyl]-1-{[3-(4-thiomorpholinyl)phenyl]methyl}-1H-indole-2-carboxylic acid] | –
20 to 80% | CC(C)(C)c1ccc(-c2c(C(=O)O)n(Cc3cccc(N4CCS(=O)(=O)CC4)c3)c3ccccc23)cc1 [Example 45, 3-[4-(1,1-dimethylethyl)phenyl]-1-{[3-(1,1-dioxido-4-thiomorpholinyl)phenyl]methyl}-1H-indole-2-carboxylic acid] | –
20 to 80% | CCOC(=O)N1CCN(c2cccc(Cn3c(C(=O)O)c(-c4ccc(C(C)(C)C)cc4)c4ccccc43)c2)CC1 [Example 46, 3-[4-(1,1-dimethylethyl)phenyl]-1-[(3-{4-[(ethyloxy)carbonyl]-1-piperazinyl}phenyl)methyl]-1H-indole-2-carboxylic acid] | –
20 to 80% | CC(C)OC(=O)N1CCN(c2cccc(Cn3c(C(=O)O)c(-c4ccc(C(C)(C)C)cc4)c4ccccc43)c2)CC1 [Example 47, 3-[4-(1,1-dimethylethyl)phenyl]-1-{[3-(4-{[(1-methylethyl)oxy]carbonyl}-1-piperazinyl)phenyl]methyl}-1H-indole-2-carboxylic acid] | –
20 to 80% | COCCOC(=O)N1CCN(c2cccc(Cn3c(C(=O)O)c(-c4ccc(C(C)(C)C)cc4)c4ccccc43)c2)CC1 [Example 48, 3-[4-(1,1-dimethylethyl)phenyl]-1-({3-[4-({[2-(methyloxy)ethyl]oxy}carbonyl)-1-piperazinyl]phenyl}methyl)-1H-indole-2-carboxylic acid] | –
